According to patent US20030055065A1, “Tricyclic amide and urea compounds useful for inhibition of G-protein function and for treatment of proliferative diseases” (priority 1993, published 2003):
pIC50: −log10 of the molar value. “And” between values parts separate entries of the source, which are not always exact repeats. Equal entries are not always repeated. Where two headings read alike, the source gives them in different places.

Legend:
[1] = test system: Normal human HEPM fibroblasts; assay: Cell Mat Assay: density of mat cells (mIC50); assay type: cell-based
Method: (§1) Compound-induced colony inhibition was assayed by addition of serial dilutions of compound directly to the growth medium 24 h after tumor cell planting, and incubating cells for an additional 14 d to allow colony formation. Assays were terminated by rinsing monolayers twice with phosphate-buffered saline (PBS), fixing the monolayers with a 1% glutaraldehyde solution in PBS, then visualizing tumor cells by staining with X-Gal (Price, J., et al., Lineage analysis in the vertebrate nervous system by retrovirus-mediated gene transfer, Proc. Natl. Acad. Sci.84, 156-160(1987)). […] Both IC50 values were obtained by determining the density of tumor cells and mat cells by visual inspection and enumeration of cells per colony and the number of colonies under the microscope.

[2] = test system: T24-BAG4 human bladder carcinoma cells expressing an activated H-ras gene; assay: Cell Mat Assay: tumor cell colony inhibition (tIC50); assay type: cell-based; details: inhibition of tumor cell growth
Method: as §1

[3] = target: T1, farnesyl protein transferase (FPT), partially purified from rat brain (Rattus norvegicus, UniProt Q02293+Q04631); assay: Inhibition of farnesyl protein transferase (transfer of [3H]farnesyl to Ras-CVLS); assay type: biochemical
T1 construct: were partially purified from rat brain by ammonium sulfate fractionation followed by Q-Sepharose
Procedure, shortened: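 Partially purified farnesyl protein transferase with His6-tagged val12-Ha-Ras-CVLS substrate and [3H]farnesyl pyrophosphate, 30 min at room temperature. Stopped with SDS/TCA, precipitated Ras collected on GF/C filters; percent inhibition relative to DMSO vehicle control.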

[4] = FPT IC50, Ras-CVLS farnesylation, partially purified rat brain FPT
[5] = Ras-CVLS farnesylation, partially purified rat brain FPT, read-out: FPT IC50
[6] = enzyme inhibition, read-out: FPT IC50

T1 sequence (Q02293 whole entry, one chain of several): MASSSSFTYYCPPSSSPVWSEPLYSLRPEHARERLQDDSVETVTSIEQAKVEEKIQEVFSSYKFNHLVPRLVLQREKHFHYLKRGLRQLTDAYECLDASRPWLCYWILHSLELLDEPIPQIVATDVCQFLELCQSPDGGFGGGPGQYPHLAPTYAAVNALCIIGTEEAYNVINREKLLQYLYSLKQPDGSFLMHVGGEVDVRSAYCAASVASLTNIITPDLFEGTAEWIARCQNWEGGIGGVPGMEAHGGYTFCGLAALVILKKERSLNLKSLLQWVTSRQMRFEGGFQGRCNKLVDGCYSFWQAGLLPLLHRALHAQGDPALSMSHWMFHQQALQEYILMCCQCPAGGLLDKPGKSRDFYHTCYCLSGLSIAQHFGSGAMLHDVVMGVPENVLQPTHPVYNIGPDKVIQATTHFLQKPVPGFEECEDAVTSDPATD

## O=C(Cc1ccncc1)N1CCC(=C2c3ccncc3CCc3cc(Cl)ccc32)CC1 [160 (5.39)]
[1]
  pIC50: 4.30
[2]
  pIC50: 4.43

## O=C(Cc1ccncc1)N1CCC(=C2c3ccc(Cl)cc3CCc3cc(Cl)cnc32)CC1 [180 (5.47)]
[1]
  pIC50: < 4.30
[2]
  pIC50: 4.74

## O=C(Nc1ccncc1)N1CCN(C2c3ccc(Cl)cc3CCc3cccnc32)CC1 (stereo not shown) [183 (6.5)]
[1]; Homo sapiens, Fibroblast
  pIC50: 4.74
[2]; Homo sapiens
  pIC50: 5.30

## O=C(Cc1cccnc1)N1CCN(C2c3ccc(Cl)cc3CCc3ccc[n+]([O-])c32)CC1 (stereo not shown) [184 (5.60)]
[3]; [4]
  pIC50: 6.04
[1]; Homo sapiens, Fibroblast
  pIC50: < 4.30
[2]; Homo sapiens
  pIC50: 4.90

## O=C(C(=O)N1CCC(=C2c3ccc(Cl)cc3CCc3cccnc32)CC1)c1c[nH]c2ccccc12 [219 (5.92)]
[1]
  pIC50: < 4.30
[2]
  pIC50: 4.60

## O=C(Cc1ccccc1[N+](=O)[O-])C(=O)N1CCC(=C2c3ccc(Cl)cc3CCc3cccnc32)CC1 [220 (5.93)]
[1]
  pIC50: < 4.30
[2]
  pIC50: 4.60

## O=C(Cc1csc2ccccc12)N1CCC(=C2c3ccc(Cl)cc3CCc3cccnc32)CC1 [221 (5.94)]
[1]
  pIC50: < 4.30
[2]
  pIC50: 5.20

## O=C(Cc1cccnc1)N1CCN([C@@H]2c3ccc(Cl)cc3CCc3cccnc32)CC1 [223 (5.96)]
[3]; [4]
  pIC50: 5.68
[1]; Homo sapiens, Fibroblast
  pIC50: < 4.30
[2]; Homo sapiens
  pIC50: 4.60

## O=C(Cc1cccnc1)N1CCN([C@H]2c3ccc(Cl)cc3CCc3cccnc32)CC1 [223 (5.97)]
[3]; [4]
  pIC50: 6.72 and 6.14 and 6.21
[1]; Homo sapiens, Fibroblast
  pIC50: < 4.30
[2]; Homo sapiens
  pIC50: 5.10

## CC(=O)N1CCC(CC(=O)N2CCN([C@@H]3c4ccc(Cl)cc4CCc4cccnc43)CC2)CC1 [225 (5.98)]
[3]; [5]
  pIC50: 5.46
[1]; Homo sapiens, Fibroblast
  pIC50: 4.30
[2]; Homo sapiens
  pIC50: 4.90

## CC(=O)N1CCC(C(=O)N2CCN([C@@H]3c4ccc(Cl)cc4CCc4cccnc43)CC2)CC1 [226 (5.100)]
[3]; [5]
  pIC50: 5.39
[1]; Homo sapiens, Fibroblast
  pIC50: < 4.30
[2]; Homo sapiens
  pIC50: 4.60

## O=C(c1ccc([N+](=O)[O-])cc1)N1CCC(=C2c3ccc(Cl)cc3CCc3cccnc32)CC1 [Example 10]
[3]; [5]
  pIC50: 5.37
[1]; Homo sapiens, Fibroblast
  pIC50: < 4.30
[2]; Homo sapiens
  pIC50: 4.60

## O=C(CCCc1ccccc1)N1CCC(=C2c3ccc(Cl)cc3CCc3cccnc32)CC1 [Example 11]
[3]; [5]
  pIC50: 5.37
[1]
  pIC50: < 4.30
[2]
  pIC50: < 4.30

## O=C(CSc1ncccn1)N1CCC(=C2c3ccc(Cl)cc3CCc3cccnc32)CC1 [Example 12]
[3]; [5]
  pIC50: 5.37
[1]; Homo sapiens, Fibroblast
  pIC50: < 4.30
[2]; Homo sapiens
  pIC50: 4.30

## O=C(Cc1ccccc1)N1CCN(C2c3ccc(Cl)cc3CCc3cccnc32)CC1 (stereo not shown) [Example 80]
[3]; [4]
  pIC50: 5.56
[1]; Homo sapiens, Fibroblast
  pIC50: < 4.30
[2]; Homo sapiens
  pIC50: < 4.30

## Cc1cnc2c(c1)CCc1cc(Cl)ccc1C2=C1CCN(C(=O)Cc2ccncc2)CC1 [Example 301]
[3]; [5]
  pIC50: 7.40 and 7.12
[1]; Homo sapiens, Fibroblast
  pIC50: < 4.30

## O=C(Cc1cc[n+]([O-])cc1)N1CCC(=C2c3ccc(Cl)cc3C=Cc3cccnc32)CC1 [Example 417-A]
[3]; [6]
  pIC50: 6.07

## CC(=O)ON=C1Cc2cccnc2C(=C2CCN(C(=O)Cc3ccncc3)CC2)c2ccc(Cl)cc21 [Example 420]
[3]; [6]
  pIC50: 6.64

## O=C(Nc1cc[n+]([O-])cc1)N1CCC(=C2c3ccc(Cl)cc3CCc3cc(Cl)ccc32)CC1 [Example 422-A]
[3]; (1.2) μM
  FPT inhibition at the concentration in parentheses: 22 (1.2)
[3]; [6]
  pIC50: < 5.92

## O=C(Cc1cc[n+]([O-])cc1)N1CCC(=C2c3ccc(Cl)cc3CCc3cc(Cl)ccc32)CC1 [Example 422]
[3]; [6]
  pIC50: 6.22

## CCN(CC)c1cnc2c(c1)CCc1cc(Cl)ccc1C2=C1CCN(C(=O)Cc2ccncc2)CC1 [Example 424-A]
[3]; [5]
  IC50: 1000 µM
[3]; Table 22, no key shown, presumably % inhibition (concentration in μM)
  FPT IC50 (μM) column, second line printed as 'x (y)': 22 (4)

## CCNc1cnc2c(c1)CCc1cc(Cl)ccc1C2=C1CCN(C(=O)Cc2ccncc2)CC1 [Example 424]
[3]; [5]
  pIC50: 5.89

## CC(C)(C(=O)N1CCN(C2c3ccc(Cl)cc3CCc3cccnc32)CC1)c1cc[n+]([O-])cc1 (stereo not shown) [Example 425-A]
[3]; [6]
  pIC50: 5.66

## CC(C)(C(=O)N1CCN(C2c3ccc(Cl)cc3CCc3cccnc32)CC1)c1ccc[n+]([O-])c1 (stereo not shown) [Example 425-C]
[3]; [6]
  pIC50: 5.90

## O=C(Cc1ccc[n+]([O-])c1)N1CCN([C@@H]2c3ccc(Cl)cc3CCc3cccnc32)CC1 [Example 425-F]
[3]; FPT IC50, enzyme inhibition
  pIC50: 5.15

## O=C(Cc1ccc[n+]([O-])c1)N1CCN([C@H]2c3ccc(Cl)cc3CCc3cccnc32)CC1 [Example 425-G]
[3]; FPT IC50, enzyme inhibition
  pIC50: 5.64

## CN1CCC(CC(=O)N2CCN([C@@H]3c4ccc(Cl)cc4CCc4cccnc43)CC2)CC1 [Example 425-M]
[3]; [6]
  pIC50: 5.74

## CN1CCC(CC(=O)N2CCN([C@H]3c4ccc(Cl)cc4CCc4cccnc43)CC2)CC1 [Example 425-N]
[3]; [6]
  pIC50: 6.19

## CN1CCCC(CC(=O)N2CCN([C@@H]3c4ccc(Cl)cc4CCc4cccnc43)CC2)C1 (stereo partly shown) [Example 425-R]
[3]; [6]
  pIC50: 5.77

## CN1CCCC(CC(=O)N2CCN([C@H]3c4ccc(Cl)cc4CCc4cccnc43)CC2)C1 (stereo partly shown) [Example 425-S]
[3]; [6]
  pIC50: 6.22

## CN1CCCC(CC(=O)N2CCN(C3c4ccc(Cl)cc4CCc4cc(Br)cnc43)CC2)C1 (stereo not shown) [Example 425-U]
[1]; Homo sapiens, Fibroblast
  pIC50: 5.00
[2]; Homo sapiens
  pIC50: 5.20

## O=C(Nc1ccc[n+]([O-])c1)N1CCN(C2c3ccc(Cl)cc3CCc3cccnc32)CC1 (stereo not shown) [Example 427-A]
[3]; [6]
  pIC50: 5.66

## O=C(Nc1cc[n+]([O-])cc1)N1CCN(C2c3ccc(Cl)cc3CCc3cc(Br)cnc32)CC1 (stereo not shown) [Example 427-B]
[3]; [6]
  pIC50: 6.68

## O=C(Nc1ccc[n+]([O-])c1)N1CCN(C2c3ccc(Cl)cc3CCc3cc(Br)cnc32)CC1 (stereo not shown) [Example 427-C]
[3]; [6]
  pIC50: 6.62

## O=C(Nc1cc[n+]([O-])cc1)N1CCN(C2c3ccc(Cl)cc3CCc3cccnc32)CC1 (stereo not shown) [Example 427]
[3]; [6]
  pIC50: 5.74

## O=C(CC1CCCNC1)N1CCN(C2c3ccc(Cl)cc3CCc3cccnc32)CC1 (stereo not shown) [Example 428-A]
[3]; [6]
  pIC50: 5.96

## CCN1CCC(CC(=O)N2CCN(C3c4ccc(Cl)cc4CCc4cccnc43)CC2)CC1 (stereo not shown) [Example 429]
[3]; [6]
  pIC50: 5.90

## COC(=O)N1CCCC(CC(=O)N2CCN(C3c4ccc(Cl)cc4CCc4cccnc43)CC2)C1 (stereo not shown) [Example 430-A]
[3]; [6]
  pIC50: 5.15

## COC(=O)N1CCC(CC(=O)N2CCN(C3c4ccc(Cl)cc4CCc4cccnc43)CC2)CC1 (stereo not shown) [Example 430]
[3]; [6]
  pIC50: 5.89

## CNC(=O)N1CCC(CC(=O)N2CCN(C3c4ccc(Cl)cc4CCc4cccnc43)CC2)CC1 (stereo not shown) [Example 431-A]
[3]; [6]
  pIC50: 5.98

## CCNC(=O)N1CCC(CC(=O)N2CCN(C3c4ccc(Cl)cc4CCc4cccnc43)CC2)CC1 (stereo not shown) [Example 431-B]
[3]; [6]
  pIC50: 6.04

## CCCNC(=O)N1CCC(CC(=O)N2CCN(C3c4ccc(Cl)cc4CCc4cccnc43)CC2)CC1 (stereo not shown) [Example 431-C]
[3]; [6]
  pIC50: 6.06

## CC(C)(C)NC(=O)N1CCC(CC(=O)N2CCN(C3c4ccc(Cl)cc4CCc4cccnc43)CC2)CC1 (stereo not shown) [Example 431-D]
[3]; [6]
  pIC50: 6.00

## CNC(=S)N1CCC(CC(=O)N2CCN(C3c4ccc(Cl)cc4CCc4cccnc43)CC2)CC1 (stereo not shown) [Example 431-E]
[3]; [6]
  pIC50: 6.06

## NC(=O)N1CCCC(CC(=O)N2CCN(C3c4ccc(Cl)cc4CCc4cccnc43)CC2)C1 (stereo not shown) [Example 431-F]
[3]; [6]
  pIC50: 5.76

## CNC(=O)N1CCCC(CC(=O)N2CCN(C3c4ccc(Cl)cc4CCc4cccnc43)CC2)C1 (stereo not shown) [Example 431-G]
[3]; [6]
  pIC50: 5.15

## NC(=O)N1CCC(CC(=O)N2CCN(C3c4ccc(Cl)cc4CCc4cccnc43)CC2)CC1 (stereo not shown) [Example 431]
[3]; [6]
  pIC50: 6.09

## CN1CCCC(NC(=O)N2CCN(C3c4ccc(Cl)cc4CCc4cccnc43)CC2)C1 (stereo not shown) [Example 432]
[3]; [6]
  pIC50: 6.18

## N[C@@H](CO)C(=O)N1CCC(CC(=O)N2CCN(C3c4ccc(Cl)cc4CCc4cccnc43)CC2)CC1 (stereo partly shown) [Example 433-A]
[3]; [5]
  pIC50: 5.96

## CSCC[C@H](N)C(=O)N1CCC(CC(=O)N2CCN(C3c4ccc(Cl)cc4CCc4cccnc43)CC2)CC1 (stereo partly shown) [Example 433-B]
[3]; [5]
  pIC50: 5.72

## NCC(=O)N1CCC(CC(=O)N2CCN(C3c4ccc(Cl)cc4CCc4cccnc43)CC2)CC1 (stereo not shown) [Example 433-C]
[3]; [5]
  pIC50: 5.60

## C[C@H](N)C(=O)N1CCC(CC(=O)N2CCN(C3c4ccc(Cl)cc4CCc4cccnc43)CC2)CC1 (stereo partly shown) [Example 433]
[3]; [5]
  pIC50: 5.60

## COC(=O)c1ccc2c(c1)CCc1cccnc1C2=C1CCN(C(=O)Cc2ccncc2)CC1 [Example 434-A]
[3]; [6]
  pIC50: 5.46

## NC(=O)c1ccc2c(c1)CCc1cccnc1C2=C1CCN(C(=O)Cc2ccncc2)CC1 [Example 436-D]
[3]; [5]
  pIC50: 6.12
